According to patent US8183292B2, “Chiral cyclic β-amino acids and their derivatives, pharmaceutical compositions containing them and the use of such compounds” (BioBlocks Magyarorszag Gyogyszerkemiai es Fejleszto Kft., priority 2006, dated 2012):

Assays:
[1] = tested on: MRC-5 human fibroblast cell lines; test: Cytotoxicity on MRC-5 human fibroblast cell lines (Alamar Blue/resazurine, 24 h); assay type: cell-based; details: MRC-5 cells, 24 hours incubation, 1% DMSO
Experimental: The toxic effect of the compounds was measured on MRC-5 human fibroblast cell lines in accordance with the method that has been described in the article published by Molnár et al. [L. Molnár, G. M. Keserü, Á. Papp, Z. Lörincz, G. Ambrus és F. Darvas.: A neural network based classification scheme for cytotoxicity predictions: Validation on 30,000 compounds, Bioorg. Med. Chem. Lett. 16(4), 1037-9 (2006)]. The cells were incubated for a cell cycle (24 hours) with solutions of various concentrations prepared from the compounds, in the presence of 1% of DMSO. 3 parallel measurements were carried out with 6 different concentrations. The ratio of the viable cells was determined by reducing the Alamaar Blue (resazurine) reagent that was followed fluorimetrically. The measured materials were not toxic on the given cell line in a concentration of 128 μmol after incubation for one day.
In the following Table 1 the cytotoxicity of some compounds according to the invention is given.

P-glycoprotein = test: Reversal of multidrug resistance: rhodamine 123 accumulation in human mdr1 transfected L5178 mouse T-cell lymphoma cells (flow cytometry); assay type: cell-based; details: for Multidrug resistance reversing effect (in words): 4 and 40 μg/mL, at higher concentration multiple of fluorescence activity of Verapamil; for Vrel = effect related to Verapamil: Verapamil at 10 μg/ml; for R = ratio of fluorescence and activity / R (activity ratio, fluorescence): rhodamine 123; for R: Table 4 concentration series; for Multidrug resistance reversing effect at lower concentrations (in words): lower concentration (4 μg/mL), similar values at higher concentration, indicating saturation
Experimental: L5178 mouse T-cell lymphoma cells were transfected with pHa MDR1/A retrovirus, by the method as described by J. L. Weaver [J. L. Weaver, G. Szabó, P. S. Pine, M. M. Gottesmann, S. Goldenberg and A. Aszalos: The effect of ion channel blockers, immunosuppressive agents and other drugs on the activity of the multidrug transporter. Int. […] Mdr-1-expressing cell lines were selected by culturing the transfected cells with 60 ng/mL of colchicine to maintain the expression of the MDR phenotype. L5178 (parent) mouse T-cell lymphoma cells and the human mdr1 transfected subline were cultured in McCoy's 5A medium supplemented with 10% by mass of heath-inactivated horce serum, L-glutamine and antibiotics. Both cell lines were cultured at 37° C. The mouse lymphoma cell line was maintained in a 5% CO2 atmosphere.
The assays were carried out by the method as described by J. Molnár et al. [J. Molnár, I. Mucsi, J. Nacsa, A. Hevér, N. Gyémánt, K. Ugocsai, P. Hegyes, S. Kiessig, D. Gaal, H. Lage and A. Varga: New silicon compounds as resistance modifiers against multidrug-resistant cells. […] The cell density was set to a value of 2×10^6/mL, then the cells were resuspended in a serum-free McCoy's 5A medium and divided in aliquots of 0.5 mL in Eppendorf centrifuge tubes. The tested compounds were added in different concentrations to different volumes (2.0-20.0 μL) of 1.0-10.0 mg/mL stock solutions and the samples were incubated for 10 minutes at room temperature. […] The fluorescence of the cell population was measured with a Beckton Dickinson FACScan flow cytometer. […] The percentage value of the mean fluorescence intensity was calculated for the treated MDR and for the parental cell lines as compared with the values obtained with the untreated cells. The activity ratio (R) was calculated on the basis of the measured fluorescence values by the following equation: […]

Row | Structure (SMILES) | Survival (%) [c = 128 μM] [1] [%] | Effect in concentration series (in words) (P-glycoprotein; 0.04, 0.08, 0.4, 0.8 and 4 μg/mL) | Multidrug resistance reversing effect (in words) (P-glycoprotein) | Vrel = effect related to Verapamil (P-glycoprotein; Table 3, 4 μg/ml) | R = ratio of fluorescence and activity (P-glycoprotein; Table 3, 4 μg/ml) | Vrel = effect related to Verapamil (P-glycoprotein; Table 3, 40 μg/ml) | R = ratio of fluorescence and activity (P-glycoprotein; Table 3, 40 μg/ml) | R (P-glycoprotein; 0.04 μg/ml) | R (P-glycoprotein; 0.08 μg/ml) | R (P-glycoprotein; 0.4 μg/ml) | R (P-glycoprotein; 0.8 μg/ml) | R (P-glycoprotein; 4 μg/ml) | Concentration sufficient for a significant P-glycoprotein-inhibiting effect (P-glycoprotein; concentration series 0.04-4 μg/mL) [µg/mL] | Multidrug resistance reversing effect at lower concentrations (in words) (P-glycoprotein) | melting point [°C] | Vrel = effect related to Verapamil (P-glycoprotein; Table 2, 4 μg/ml) | R (activity ratio, fluorescence) (P-glycoprotein; Table 2, 4 μg/ml) | Vrel = effect related to Verapamil (P-glycoprotein; Table 2, 40 μg/ml) | R (activity ratio, fluorescence) (P-glycoprotein; Table 2, 40 μg/ml)
1 | CCOC(=O)[C@H]1C[C@H]2C[C@@H]([C@H]1N(Cc1ccccc1)C(=S)Nc1cccc(OC)c1)C2(C)C [Compound 47, (1R,2R,3S,5R)-1-Benzyl-1-(3-Ethoxycarbonyl-6,6-Dimethylbicyclo[3.1.1]Heptan-2-yl)-3-(3-Methoxyphenyl)-Thiourea] | 97.7 | Dose-dependence was observed | significant dose-dependent effect | 3.02 | 34.76 | 3.07 | 35.35 | 1.44 | 1.60 | 6.03 | 7.16 | 35.20 | 0.4 | considerable multidrug resistance reversing effect | 109 to 112 |  |  |  | 
2 | CCOC(=O)[C@@H]1C[C@H]2C[C@@H]([C@H]1NC(=S)Nc1cccc(OC)c1)C2(C)C [Compound 49, (1R,2R,3R,5R)-1-(3-Ethoxycarbonyl-6,6-Dimethylbicyclo[3.1.1]Heptan-2-yl)-3-(3-Methoxyphenyl)-Thiourea] | 250.9 |  | significant dose-dependent effect |  |  |  |  |  |  |  |  |  |  |  | 118 to 120 | 0.56 | 2.77 | 5.71 | 28.07
3 | CCOC(=O)[C@@H]1C[C@H]2C[C@@H]([C@H]1NC(=O)Nc1ccc(Cl)cc1)C2(C)C [Compound 50, (1R,2R,3R,5R)-1-(3-Ethoxycarbonyl-6,6-Dimethylbicyclo[3.1.1]Heptan-2-yl)-3-(4-Chlorophenyl)-Urea] | 167.6 |  | significant dose-dependent effect | 0.16 | 1.87 | 3.70 | 42.58 |  |  |  |  |  |  |  | 167 to 169 |  |  |  | 
4 | CCOC(=O)[C@@H]1C[C@H]2C[C@@H]([C@H]1N(Cc1ccccc1)C(=S)Nc1cccc(OC)c1)C2(C)C [Compound 52, (1R,2R,3R,5R)-1-Benzyl-1-(3-Ethoxycarbonyl-6,6-Dimethylbicyclo[3.1.1]-Heptan-2-yl)-3-(3-Methoxyphenyl)-Thiourea] | 113.0 |  |  | 1.90 | 21.87 | 2.13 | 24.44 |  |  |  |  |  |  | considerable multidrug resistance reversing effect | 110 to 111 |  |  |  | 
